According to ChEMBL document CHEMBL4425194, “Synthesis and biological evaluation of novel imidazol-1-ylacetic acid derivatives as non-brain penetrant bombesin receptor subtype-3 (BRS-3) agonists” (Bioorg Med Chem Lett, 2016):
pEC50: −log10 of the molar value. Converted amounts (≈) assume the structure as drawn. The source made the active and inactive calls. The rule behind the calls is not given here.

Tests used:
[1] = biological target: T1, Bombesin receptor subtype-3 (Homo sapiens, UniProt P32247); experiment: Agonist activity at human BRS3 expressed in CHOK1 cells measured after 1 hrs by IP-One HTRF assay; assay type: cell-based
T1 sequence (P32247 whole entry): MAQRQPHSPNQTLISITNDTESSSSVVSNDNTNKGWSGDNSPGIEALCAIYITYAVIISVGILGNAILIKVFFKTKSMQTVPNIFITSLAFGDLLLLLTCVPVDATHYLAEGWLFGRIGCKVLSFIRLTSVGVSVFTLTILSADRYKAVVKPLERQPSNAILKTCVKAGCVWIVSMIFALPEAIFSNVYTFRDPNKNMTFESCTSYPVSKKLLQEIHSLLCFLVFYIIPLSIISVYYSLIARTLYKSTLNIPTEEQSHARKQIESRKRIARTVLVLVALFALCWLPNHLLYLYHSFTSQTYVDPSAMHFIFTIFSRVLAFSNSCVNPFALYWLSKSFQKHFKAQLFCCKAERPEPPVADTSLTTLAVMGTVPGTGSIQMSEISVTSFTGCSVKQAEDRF

[2] = biological target: T2, Bombesin receptor subtype-3 (Mus musculus, UniProt O54798); experiment: Agonist activity at mouse BRS3 expressed in CHOK1 cells measured after 1 hrs by IP-One HTRF assay; assay type: cell-based
T2 sequence (O54798 whole entry): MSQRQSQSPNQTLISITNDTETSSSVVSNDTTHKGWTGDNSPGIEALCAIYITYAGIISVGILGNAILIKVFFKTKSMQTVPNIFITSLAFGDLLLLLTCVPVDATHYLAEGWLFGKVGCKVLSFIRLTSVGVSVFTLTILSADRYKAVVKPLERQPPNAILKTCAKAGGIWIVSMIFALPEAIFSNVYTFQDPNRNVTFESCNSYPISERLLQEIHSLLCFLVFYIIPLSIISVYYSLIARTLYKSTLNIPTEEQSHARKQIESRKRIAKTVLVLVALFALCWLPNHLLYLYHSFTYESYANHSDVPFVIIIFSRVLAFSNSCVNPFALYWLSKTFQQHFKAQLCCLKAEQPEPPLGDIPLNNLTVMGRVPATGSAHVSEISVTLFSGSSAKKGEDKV

[3] = Drug uptake in mouse plasma assessed as ratio of active compound to metabolite at 3 mg/kg, iv administered as infusion measured after 30 or 60 mins; assay type: ADME, organism-based; conditions: in vivo, 1 h, pooled result: one value given for 2 cell lines, strains, targets or settings
[4] = Octanol-water distribution coefficient, log D of the compound in PBS buffer at pH 7.4; assay type: physicochemical
[5] = species on record: Mus musculus; experiment: Antiobesity activity in BRS3-deficient C57BL/6N mouse assessed as anorectic effect measured after 1 hr; assay type: functional, organism-based
[6] = Solubility of the compound in JP1 at pH 1.2; assay type: physicochemical; conditions: JP1, pH 1.2
[7] = Solubility of the compound in JP2 at pH 6.8; assay type: physicochemical; conditions: JP2, pH 6.8
[8] = Fraction unbound in mouse plasma; assay type: ADME, cell-free
[9] = tested on: Mus musculus; experiment: Antiobesity activity in po dosed C57BL/6N mouse assessed as anorectic effect measured after 1 hr; assay type: functional, organism-based
[10] = tested on: Mus musculus; experiment: Antiobesity activity in C57BL/6N mouse assessed as reduction in food intake at 30 mg/kg, po measured after 1 hr; assay type: functional; parameters: scale not given: the % may be the effect or the level left
[11] = Cardiotoxicity in halothane anesthetized dog assessed as effect on blood pressure at 3 mg/kg/ml, iv measured after 30 mins; assay type: toxicity, organism-based, Canis lupus familiaris; conditions: in vivo, 0.5 h
[12] = Plasma concentration in halothane anesthetized dog at 3 mg/kg/ml, iv measured after 30 mins; assay type: ADME, organism-based, Canis lupus familiaris
[13] = Plasma concentration in halothane anesthetized dog at 3 mg/kg/ml, iv measured after 60 mins; assay type: ADME, organism-based, Canis lupus familiaris
[14] = Cmax in halothane anesthetized dog showing 100.9% increase in heart rate at 3 mg/kg/ml, iv measured after 30 mins; assay type: ADME, organism-based, Canis lupus familiaris; parameters: dose 3 mg/kg, route intravenous; conditions: in vivo
[15] = Cmax in halothane anesthetized dog not showing increase in heart rate at 3 mg/kg/ml, iv measured after 30 mins; assay type: ADME, organism-based, Canis lupus familiaris; parameters: dose 3 mg/kg, route intravenous; conditions: in vivo
[16] = Drug uptake in mouse brain assessed as active compound level at 3 mg/kg, iv administered as infusion measured after 30 or 60 mins; assay type: ADME, organism-based; conditions: 1 h
[17] = Drug uptake in mouse brain assessed as active compound level at 10 mg/kg, iv administered as infusion measured after 30 or 60 mins; assay type: ADME, organism-based; conditions: 1 h
[18] = Drug uptake in mouse brain assessed as metabolite level at 3 mg/kg, iv administered as infusion measured after 30 or 60 mins; assay type: ADME, organism-based; conditions: 1 h
[19] = Drug uptake in mouse brain assessed as metabolite level at 10 mg/kg, iv administered as infusion measured after 30 or 60 mins; assay type: ADME, organism-based; conditions: 1 h

SMILES | pEC50 [1] | pEC50 [2] | also measured
COC(=O)c1ccccc1-c1ccc(CCCc2ncc(CC(C)(C)C)[nH]2)cc1 | < 5.00 | < 5.00 | 
COC(=O)C(C)(C)c1ccc(CCc2ncc(CC(C)(C)C)[nH]2)cc1 | 5.65 | 5.00 | 
CC(C)(C)Cc1cnc(CCc2ccc(-c3cccc(F)c3C(=O)O)cc2)n1Cc1ccc(C(=O)O)cc1 | 7.92 | 7.89 | 
CC(C)(C)Cc1cnc(CCc2ccc(-c3cccc(F)c3C(=O)O)cc2)n1CCOc1cccc(O)c1 | 9.05 | 9.10 | 
COC(=O)c1ccccc1-c1ccc(CCc2ncc(CC(C)(C)C)[nH]2)cc1 | 6.19 | 6.30 | 
COC(=O)C(C)(C)Oc1ccc(CCc2ncc(CC(C)(C)C)[nH]2)cc1 | < 5.00 | 6.21 | 
CC(C)(C)Cc1cnc(CCc2ccc(-c3cccc(F)c3C(=O)O)cc2)n1CCNS(C)(=O)=O | 8.70 | 8.40 | 
COC(=O)c1c(F)cccc1-c1ccc(CCc2ncc(CC(C)(C)C)n2CCOc2cccc(O)c2)cc1 | 7.89 | 7.60 | Ratio [3]: 2.49; Kp [16]: 0.05; Kp [17]: 0.05; Kp [18]: 0.31; Kp [19]: 0.31
COC(=O)c1c(F)cccc1-c1ccc(CCc2ncc(CC(C)(C)C)n2Cc2ccc(C(=O)O)cc2)cc1 | 8.52 | 8.30 | 
COC(=O)c1c(F)cccc1-c1ccc(CCc2ncc(CC(C)(C)C)n2CCO)cc1 | 7.68 | 7.62 | 
COC(=O)c1c(F)cccc1-c1ccc(CCc2ncc(CC(C)(C)C)n2CCNS(C)(=O)=O)cc1 | 7.96 | 8.15 | Ratio [3]: 2.3; Kp [16]: 0.02; Kp [17]: 0.02; Kp [18]: 0.02; Kp [19]: 0.02

Continued, in another order:

pEC50 [1] | pEC50 [2] | SMILES | also measured
8.52 | 8.70 | CC(C)(C)Cc1cnc(CCc2ccc(-c3cccc(F)c3C(=O)O)cc2)n1CCO | 
7.41 | 7.36 | COC(=O)c1c(F)cccc1-c1ccc(CCc2ncc(CC(C)(C)C)n2CC(=O)O)cc1 | Ratio [3]: 1.31; logD [4]: 2; Activity [5]: inactive; solubility [6]: 730 µg/mL (≈ 1610 µM); solubility [7]: 370 µg/mL (≈ 818 µM); fraction unbound [8]: 0.0167; Activity [9]: Dose-dependent effect; Activity [10]: 20%; Activity [11]: Non-Toxic; concentration at 0.5 h [12]: 28.2 µM; concentration at 1 h [13]: 1.14 µM; Cmax [14]: 16.8 µM; Cmax [15]: 44.3 µM
6.05 | 5.90 | CC(C)(C)Cc1cnc(CCc2ccc(-c3ccccc3C(=O)O)cc2)n1CC(=O)O | 
7.96 | 7.21 | CC(C)(C)Cc1cnc(CCc2ccc(-c3cccc(F)c3C(=O)O)cc2)n1CCC(=O)O | 
5.39 | 5.72 | CCC(C)(C)Cc1cn(CC(=O)O)c(CCc2ccc(-c3ccccn3)cc2)n1 | 
9.00 | 8.52 | COC(=O)c1c(F)cccc1-c1ccc(CCc2ncc(CC(C)(C)C)n2CCC(=O)O)cc1 | Ratio [3]: 1.3; Kp [16]: 0.02; Kp [17]: 0.02
6.01 | 6.16 | COC(=O)c1ccccc1-c1ccc(CCc2ncc(CC(C)(C)C)n2CC(=O)O)cc1 | 
7.16 | 6.85 | CC(C)(C)Cc1cnc(CCc2ccc(-c3cccc(F)c3C(=O)O)cc2)n1CC(=O)O | logD [4]: < -1.8; solubility [6]: > 870 µg/mL; solubility [7]: > 870 µg/mL; fraction unbound [8]: 0.181; concentration at 0.5 h [12]: 20.1 µM; concentration at 1 h [13]: 1.09 µM; Cmax [14]: 4.2 µM; Cmax [15]: 38.1 µM
7.38 | 7.59 | CCC(C)(C)Cc1cnc(CCc2ccc(-c3ccccn3)cc2)n1CC(=O)O | 
